Measured values from PMC11249646, “Small-Molecule Disruptors of the Interaction between Calcium- and Integrin-Binding Protein 1 and Integrin αIIbβ3 as Novel Antiplatelet Agents” (ACS Pharmacology & Translational Science, 2024).

molecular target: T1, CIB1 and αIIb interaction (CIB1-GST : F-αIIb peptide) (Homo sapiens, UniProt Q99828); assay: FP assay, 1536-well qHTS format (primary and confirmatory screen); type: binding; conditions: confirmatory screen
T1 construct: made in house; host or cells: BL-21 plus RIL cells (E. coli)
T1 sequence (Q99828 1-191): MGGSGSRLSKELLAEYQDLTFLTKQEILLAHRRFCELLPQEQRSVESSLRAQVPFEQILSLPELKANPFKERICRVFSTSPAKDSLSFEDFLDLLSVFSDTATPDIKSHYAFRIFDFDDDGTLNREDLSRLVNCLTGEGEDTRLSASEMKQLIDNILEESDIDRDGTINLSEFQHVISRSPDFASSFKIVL

| Compound | Efficacy (%) (confirmatory screen) |
| --- | --- |
| CN(C)CCCn1cc(C2=C(c3c[nH]c4ccccc34)C(=O)NC2=O)c2ccccc21 [NCGC00024760-07] | -63 |
| CCOC(=O)c1cc(-c2ccco2)nc2c1c(C)nn2CCC#N.O=C(O)C(F)(F)F [NCGC00037529-03] | -61 |
| CCOC(=O)c1c(-c2ccc(C)o2)csc1NC(=O)CSc1nnnn1-c1ccccc1.O=C(O)C(F)(F)F [NCGC00041785-02] | -47 |
| CCOC(=O)c1nn(-c2ccc(OC)cc2)c(=O)c2c(N)scc12 [NCGC00053250-03] | -69 |
| COP(=S)(OC)SCN1C(=O)c2ccccc2C1=O [NCGC00080392-05] | -50 |

same assay, conditions: confirmatory screen, YES/NO

| Compound | Confirm? (confirmatory screen) |
| --- | --- |
| CN(C)CCCn1cc(C2=C(c3c[nH]c4ccccc34)C(=O)NC2=O)c2ccccc21 [NCGC00024760-07] | YES |
| CCOC(=O)c1cc(-c2ccco2)nc2c1c(C)nn2CCC#N.O=C(O)C(F)(F)F [NCGC00037529-03] | YES |
| CCOC(=O)c1c(-c2ccc(C)o2)csc1NC(=O)CSc1nnnn1-c1ccccc1.O=C(O)C(F)(F)F [NCGC00041785-02] | YES |
| CCOC(=O)c1nn(-c2ccc(OC)cc2)c(=O)c2c(N)scc12 [NCGC00053250-03] | YES |
| COP(=S)(OC)SCN1C(=O)c2ccccc2C1=O [NCGC00080392-05] | YES |

same assay, conditions: confirmatory screen, YES/NO call

| CONFIRMATORY SCREEN Confirm? | Compound |
| --- | --- |
| YES | CC(=O)Oc1cccc2c1C(=O)c1c(OC(C)=O)cc(C(=O)O)cc1C2=O [NCGC00018274-05] |

same assay, conditions: confirmatory screen, qHTS curve class; negative sign = inhibitory curve

| CONFIRMATORY SCREEN Curve Class | Compound | Curve Class (confirmatory screen) |
| --- | --- | --- |
| -1.4 | CC(=O)Oc1cccc2c1C(=O)c1c(OC(C)=O)cc(C(=O)O)cc1C2=O [NCGC00018274-05] | – |
| – | CN(C)CCCn1cc(C2=C(c3c[nH]c4ccccc34)C(=O)NC2=O)c2ccccc21 [NCGC00024760-07] | -2.2 |
| – | CCOC(=O)c1cc(-c2ccco2)nc2c1c(C)nn2CCC#N.O=C(O)C(F)(F)F [NCGC00037529-03] | -2.2 |
| – | CCOC(=O)c1c(-c2ccc(C)o2)csc1NC(=O)CSc1nnnn1-c1ccccc1.O=C(O)C(F)(F)F [NCGC00041785-02] | -2.2 |
| – | CCOC(=O)c1nn(-c2ccc(OC)cc2)c(=O)c2c(N)scc12 [NCGC00053250-03] | -2.4 |
| – | COP(=S)(OC)SCN1C(=O)c2ccccc2C1=O [NCGC00080392-05] | -2.2 |

same assay, conditions: confirmatory screen; negative = inhibition

| CONFIRMATORY SCREEN Efficacy (%) | Compound |
| --- | --- |
| -50 | CC(=O)Oc1cccc2c1C(=O)c1c(OC(C)=O)cc(C(=O)O)cc1C2=O [NCGC00018274-05] |

same assay, conditions: confirmatory screen; read-out: CONFIRMATORY SCREEN IC50

| IC50 [µM] | Compound |
| --- | --- |
| 11.2 | CC(=O)Oc1cccc2c1C(=O)c1c(OC(C)=O)cc(C(=O)O)cc1C2=O [NCGC00018274-05] |

same assay, conditions: confirmatory screen; read-out: IC50 [μM] (confirmatory screen)

| Compound | IC50 [µM] |
| --- | --- |
| CN(C)CCCn1cc(C2=C(c3c[nH]c4ccccc34)C(=O)NC2=O)c2ccccc21 [NCGC00024760-07] | 44.7 |
| CCOC(=O)c1cc(-c2ccco2)nc2c1c(C)nn2CCC#N.O=C(O)C(F)(F)F [NCGC00037529-03] | 50.1 |
| CCOC(=O)c1c(-c2ccc(C)o2)csc1NC(=O)CSc1nnnn1-c1ccccc1.O=C(O)C(F)(F)F [NCGC00041785-02] | 39.8 |
| CCOC(=O)c1nn(-c2ccc(OC)cc2)c(=O)c2c(N)scc12 [NCGC00053250-03] | 70.8 |
| COP(=S)(OC)SCN1C(=O)c2ccccc2C1=O [NCGC00080392-05] | 50.1 |

same assay, conditions: qHTS FP screen hits, Table S2; negative = inhibition

| Compound | Efficacy (%) |
| --- | --- |
| CN(C)CCCn1cc(C2=C(c3c[nH]c4ccccc34)C(=O)NC2=O)c2ccccc21 [NCGC00024760-07] | -53 |
| CCOC(=O)c1cc(-c2ccco2)nc2c1c(C)nn2CCC#N.O=C(O)C(F)(F)F [NCGC00037529-03] | -27 |
| CCOC(=O)c1nn(-c2ccc(OC)cc2)c(=O)c2c(N)scc12 [NCGC00053250-03] | -56 |
| COP(=S)(OC)SCN1C(=O)c2ccccc2C1=O [NCGC00080392-05] | -50 |

same assay, conditions: qHTS FP screen hits, Table S2; one class per curve where COUNT > 1; negative sign = inhibitory curve

| Curve Class | Compound |
| --- | --- |
| -2.2 | CN(C)CCCn1cc(C2=C(c3c[nH]c4ccccc34)C(=O)NC2=O)c2ccccc21 [NCGC00024760-07] |
| -1.2 | CCOC(=O)c1nn(-c2ccc(OC)cc2)c(=O)c2c(N)scc12 [NCGC00053250-03] |

| Compound | Curve Class |
| --- | --- |
| COP(=S)(OC)SCN1C(=O)c2ccccc2C1=O [NCGC00080392-05] | -1.2 |

same assay, conditions: qHTS FP screen hits, Table S2; read-out: IC50

| Compound | IC50 [µM] |
| --- | --- |
| CN(C)CCCn1cc(C2=C(c3c[nH]c4ccccc34)C(=O)NC2=O)c2ccccc21 [NCGC00024760-07] | 39.8 |
| CCOC(=O)c1cc(-c2ccco2)nc2c1c(C)nn2CCC#N.O=C(O)C(F)(F)F [NCGC00037529-03] | 39.8 |
| CCOC(=O)c1nn(-c2ccc(OC)cc2)c(=O)c2c(N)scc12 [NCGC00053250-03] | 39.8 |
| COP(=S)(OC)SCN1C(=O)c2ccccc2C1=O [NCGC00080392-05] | 17.8 |

same assay, conditions: qHTS primary screen hits, Table S2; negative = inhibition

| Compound | Efficacy (%) |
| --- | --- |
| CC(=O)Oc1cccc2c1C(=O)c1c(OC(C)=O)cc(C(=O)O)cc1C2=O [NCGC00018274-05] | -39 |
| CCOC(=O)c1c(-c2ccc(C)o2)csc1NC(=O)CSc1nnnn1-c1ccccc1.O=C(O)C(F)(F)F [NCGC00041785-02] | -58 |

same assay, conditions: qHTS primary screen hits, Table S2; negative sign = inhibitory curve; several classes where COUNT > 1

| Compound | Curve Class |
| --- | --- |
| CC(=O)Oc1cccc2c1C(=O)c1c(OC(C)=O)cc(C(=O)O)cc1C2=O [NCGC00018274-05] | -2.4 |
| CCOC(=O)c1c(-c2ccc(C)o2)csc1NC(=O)CSc1nnnn1-c1ccccc1.O=C(O)C(F)(F)F [NCGC00041785-02] | -1.2 |

same assay, conditions: qHTS primary screen hits, Table S2; read-out: IC50

| Compound | IC50 [µM] |
| --- | --- |
| CC(=O)Oc1cccc2c1C(=O)c1c(OC(C)=O)cc(C(=O)O)cc1C2=O [NCGC00018274-05] | 39.8 |
| CCOC(=O)c1c(-c2ccc(C)o2)csc1NC(=O)CSc1nnnn1-c1ccccc1.O=C(O)C(F)(F)F [NCGC00041785-02] | 28.2 |

molecular target: T2, GST-CIB1 : F-scrambled peptide (Homo sapiens, UniProt Q99828); assay: FP scrambled-peptide counter screen, 1536-well format; type: binding; conditions: counterscreen
T2 construct: made in house; host or cells: BL-21 plus RIL cells (E. coli)
T2 sequence (Q99828 1-191): T1 sequence (Q99828 1-191)

| Compound | Efficacy (%) (counterscreen) |
| --- | --- |
| CN(C)CCCn1cc(C2=C(c3c[nH]c4ccccc34)C(=O)NC2=O)c2ccccc21 [NCGC00024760-07] | -54 |
| CCOC(=O)c1cc(-c2ccco2)nc2c1c(C)nn2CCC#N.O=C(O)C(F)(F)F [NCGC00037529-03] | -56 |
| CCOC(=O)c1c(-c2ccc(C)o2)csc1NC(=O)CSc1nnnn1-c1ccccc1.O=C(O)C(F)(F)F [NCGC00041785-02] | -23 |
| CCOC(=O)c1nn(-c2ccc(OC)cc2)c(=O)c2c(N)scc12 [NCGC00053250-03] | -59 |
| COP(=S)(OC)SCN1C(=O)c2ccccc2C1=O [NCGC00080392-05] | -33 |

same assay, conditions: counterscreen, YES/NO

| Compound | Confirm? (counterscreen) |
| --- | --- |
| CCOC(=O)c1c(-c2ccc(C)o2)csc1NC(=O)CSc1nnnn1-c1ccccc1.O=C(O)C(F)(F)F [NCGC00041785-02] | YES |

same assay, conditions: counterscreen, qHTS curve class; negative sign = inhibitory curve

| Compound | Curve Class (counterscreen) |
| --- | --- |
| CN(C)CCCn1cc(C2=C(c3c[nH]c4ccccc34)C(=O)NC2=O)c2ccccc21 [NCGC00024760-07] | -2.2 |
| CCOC(=O)c1cc(-c2ccco2)nc2c1c(C)nn2CCC#N.O=C(O)C(F)(F)F [NCGC00037529-03] | -2.4 |
| CCOC(=O)c1c(-c2ccc(C)o2)csc1NC(=O)CSc1nnnn1-c1ccccc1.O=C(O)C(F)(F)F [NCGC00041785-02] | 4 |
| CCOC(=O)c1nn(-c2ccc(OC)cc2)c(=O)c2c(N)scc12 [NCGC00053250-03] | -2.2 |
| COP(=S)(OC)SCN1C(=O)c2ccccc2C1=O [NCGC00080392-05] | -2.4 |

same assay, conditions: counterscreen; read-out: IC50 [μM] (counterscreen)

| Compound | IC50 [µM] |
| --- | --- |
| CN(C)CCCn1cc(C2=C(c3c[nH]c4ccccc34)C(=O)NC2=O)c2ccccc21 [NCGC00024760-07] | 35.5 |
| CCOC(=O)c1cc(-c2ccco2)nc2c1c(C)nn2CCC#N.O=C(O)C(F)(F)F [NCGC00037529-03] | 56.2 |
| CCOC(=O)c1nn(-c2ccc(OC)cc2)c(=O)c2c(N)scc12 [NCGC00053250-03] | 20 |
| COP(=S)(OC)SCN1C(=O)c2ccccc2C1=O [NCGC00080392-05] | 44.7 |

same assay, conditions: scrambled-peptide counterscreen

| COUNTERSCREEN Efficacy (%) | Compound |
| --- | --- |
| -53 | CC(=O)Oc1cccc2c1C(=O)c1c(OC(C)=O)cc(C(=O)O)cc1C2=O [NCGC00018274-05] |

same assay, conditions: scrambled-peptide counterscreen, YES/NO call

| COUNTERSCREEN Confirm? | Compound |
| --- | --- |
| YES | CC(=O)Oc1cccc2c1C(=O)c1c(OC(C)=O)cc(C(=O)O)cc1C2=O [NCGC00018274-05] |

same assay, conditions: scrambled-peptide counterscreen, qHTS curve class

| COUNTERSCREEN Curve Class | Compound |
| --- | --- |
| -2.4 | CC(=O)Oc1cccc2c1C(=O)c1c(OC(C)=O)cc(C(=O)O)cc1C2=O [NCGC00018274-05] |

same assay, conditions: scrambled-peptide counterscreen; read-out: COUNTERSCREEN IC50

| IC50 [µM] | Compound |
| --- | --- |
| 50.1 | CC(=O)Oc1cccc2c1C(=O)c1c(OC(C)=O)cc(C(=O)O)cc1C2=O [NCGC00018274-05] |
